Experimental data as given in US11661403B2, “Oxadiazole compounds” (Vivace Therapeutics, Inc., priority 2018, dated 2023).

System: 8XTBD luciferase reporter (YAP) in HEK293T cells
Experiment: YAP Reporter Assay
Format: cell-based
Conditions: Homo sapiens, HEK-293T; HEK293T cells stably transfected with 8XTBD luciferase reporter and pRLTK; 24-hr incubation; top concentration 3 μM; read-out: Firefly Luciferase IC50

SMILES	IC50 [nM]
CNCC(C)c1nnc(-c2ccccc2Nc2ccc(C(F)(F)F)cc2)o1 (stereo not drawn) [Compound 150, 2-(5-(1-(methylamino)propan-2-yl)-1,3,4-oxadiazol-2-yl)-N-(4-(trifluoromethyl)phenyl)aniline]	100 to 1000
OCC1(c2nnc(-c3ccccc3Nc3ccc(C(F)(F)F)cc3)o2)CC1 [Compound 47, (1-(5-(2-((4-(trifluoromethyl)phenyl)amino)phenyl)-1,3,4-oxadiazol-2-yl)cyclopropyl)methanol]	< 100
N#CN1CCC(c2nnc(-c3ccccc3Nc3ccc(C(F)(F)F)cc3)o2)C1 (stereo not drawn) [Compound 177, 3-(5-(2-((4-(trifluoromethyl)phenyl)amino)phenyl)-1,3,4-oxadiazol-2-yl)pyrrolidine-1-carbonitrile]	100 to 1000
C[C@]1(c2nnc(-c3ccccc3Nc3ccc(C(F)(F)F)cc3)o2)CCNC1=O [Compound 76, (R)-3-methyl-3-(5-(2-((4-(trifluoromethyl)phenyl)amino)phenyl)-1,3,4-oxadiazol-2-yl)pyrrolidin-2-one]	< 100
OCCNc1nnc(-c2ccccc2Nc2ccc(C(F)(F)F)cc2)o1 [Compound 10, 2-((5-(2-((4-(trifluoromethyl)phenyl)amino)phenyl)-1,3,4-oxadiazol-2-yl)amino)ethan-1-ol]	100 to 1000
N#CCc1nnc(-c2ccccc2Nc2ccc(C(F)(F)F)cc2)o1 [Compound 137, 2-(5-(2-((4-(trifluoromethyl)phenyl)amino)phenyl)-1,3,4-oxadiazol-2-yl)acetonitrile]	100 to 1000
NC(=O)c1nnc(-c2ccccc2Nc2ccc(C(F)(F)F)cc2)o1 [Compound 15, 5-(2-((4-(trifluoromethyl)phenyl)amino)phenyl)-1,3,4-oxadiazole-2-carboxamide]	< 100
CC(C)NCc1nnc(-c2ccccc2Nc2ccc(C(F)(F)F)cc2)o1 [Compound 97, 2-(5-((isopropylamino)methyl)-1,3,4-oxadiazol-2-yl)-N-(4-(trifluoromethyl)phenyl)aniline]	1000 to 5000
CC(C)(c1nnc(-c2ccccc2Nc2ccc(C(F)(F)F)cc2)o1)S(C)(=O)=O [Compound 163, 2-(5-(2-(methylsulfonyl)propan-2-yl)-1,3,4-oxadiazol-2-yl)-N-(4-(trifluoromethyl)phenyl)aniline]	100 to 1000
C#CCC(O)c1nnc(-c2ccccc2Nc2ccc(C(F)(F)F)cc2)o1 (stereo not drawn) [Compound 124, 1-(5-(2-((4-(trifluoromethyl)phenyl)amino)phenyl)-1,3,4-oxadiazol-2-yl)but-3-yn-1-ol]	< 100
FC(F)(F)c1ccc(Nc2ccccc2-c2nnc(C3CCCO3)o2)cc1 (stereo not drawn) [Compound 181, 2-(5-(tetrahydrofuran-2-yl)-1,3,4-oxadiazol-2-yl)-N-(4-(trifluoromethyl)phenyl)aniline]	100 to 1000
NC(=O)NC1(c2nnc(-c3ccccc3Nc3ccc(C(F)(F)F)cc3)o2)CC1 [Compound 62, 1-(1-(5-(2-((4-(trifluoromethyl)phenyl)amino)phenyl)-1,3,4-oxadiazol-2-yl)cyclopropyl)urea]	100 to 1000
[N-]=[N+]=NCc1nnc(-c2ccccc2Nc2ccc(C(F)(F)F)cc2)o1 [Compound 31, 2-[5-(azidomethyl)-1,3,4-oxadiazol-2-yl]-N-[4-(trifluoromethyl)phenyl]aniline]	100 to 1000
CN(C#N)CCc1nnc(-c2ccccc2Nc2ccc(C(F)(F)F)cc2)o1 [Compound 174, N-methyl-N-(2-(5-(2-((4-(trifluoromethyl)phenyl)amino)phenyl)-1,3,4-oxadiazol-2-yl)ethyl)cyanamide]	< 100
CNCCc1nnc(-c2ccccc2Nc2ccc(C(F)(F)F)cc2)o1 [Compound 172, 2-(5-(2-(methylamino)ethyl)-1,3,4-oxadiazol-2-yl)-N-(4-(trifluoromethyl)phenyl)aniline]	1000 to 5000
O=C1NCC(c2nnc(-c3ccccc3Nc3ccc(C(F)(F)F)cc3)o2)O1 (stereo not drawn) [Compound 13, 5-(5-(2-((4-(trifluoromethyl)phenyl)amino)phenyl)-1,3,4-oxadiazol-2-yl)oxazolidin-2-one]	100 to 1000
N#CCNC(=O)c1nnc(-c2ccccc2Nc2ccc(C(F)(F)F)cc2)o1 [Compound 114, N-(cyanomethyl)-5-(2-((4-(trifluoromethyl)phenyl)amino)phenyl)-1,3,4-oxadiazole-2-carboxamide]	< 100
CC1(c2nnc(-c3ccccc3Nc3ccc(C(F)(F)F)cc3)o2)OCCO1 [Compound 86, 2-(5-(2-methyl-1,3-dioxolan-2-yl)-1,3,4-oxadiazol-2-yl)-N-(4-(trifluoromethyl)phenyl)aniline]	< 100
CC(C)N(C#N)Cc1nnc(-c2ccccc2Nc2ccc(C(F)(F)F)cc2)o1 [Compound 99, N-isopropyl-N-((5-(2-((4-(trifluoromethyl)phenyl)amino)phenyl)-1,3,4-oxadiazol-2-yl)methyl)cyanamide]	100 to 1000

SMILES	IC50 [nM]
CC(C)(C)OC(=O)N1C(=O)OCC1c1nnc(-c2ccccc2Nc2ccc(C(F)(F)F)cc2)o1 (stereo not drawn) [Compound 26]	< 100
CCOC(=O)CN(C)c1nnc(-c2ccccc2Nc2ccc(C(F)(F)F)cc2)o1 [Compound 11, ethyl N-methyl-N-(5-(2-((4-(trifluoromethyl)phenyl)amino)phenyl)-1,3,4-oxadiazol-2-yl)glycinate]	100 to 1000
O=C1NCCN1c1nnc(-c2ccccc2Nc2ccc(C(F)(F)F)cc2)o1 [Compound 34, 1-(5-(2-((4-(trifluoromethyl)phenyl)amino)phenyl)-1,3,4-oxadiazol-2-yl)imidazolidin-2-one]	100 to 1000
N#CN1CCCC1c1nnc(-c2ccccc2Nc2ccc(C(F)(F)F)cc2)o1 (stereo not drawn) [Compound 171, 2-(5-(2-((4-(trifluoromethyl)phenyl)amino)phenyl)-1,3,4-oxadiazol-2-yl)pyrrolidine-1-carbonitrile]	< 100
CN(C)c1nnc(-c2ccccc2Nc2ccc(C(F)(F)F)cc2)o1 [Compound 6, N,N-dimethyl-5-(2-((4-(trifluoromethyl)phenyl)amino)phenyl)-1,3,4-oxadiazol-2-amine]	1000 to 5000
CON(C)C(=O)c1nnc(-c2ccccc2Nc2ccc(C(F)(F)F)cc2)o1 [Compound 192, N-methoxy-N-methyl-5-(2-((4-(trifluoromethyl)phenyl)amino)phenyl)-1,3,4-oxadiazole-2-carboxamide]	100 to 1000
FC(F)(F)c1ccc(Nc2ccc(Br)cc2-c2nnc(C3CC3)o2)cc1 [Compound 204, 4-bromo-2-(5-cyclopropyl-1,3,4-oxadiazol-2-yl)-N-(4-(trifluoromethyl)phenyl)aniline]	100 to 1000
CC(CN(C)C#N)c1nnc(-c2ccccc2Nc2ccc(C(F)(F)F)cc2)o1 (stereo not drawn) [Compound 152, N-methyl-N-(2-(5-(2-((4-(trifluoromethyl)phenyl)amino)phenyl)-1,3,4-oxadiazol-2-yl)propyl)cyanamide]	< 100
Cc1oncc1-c1nnc(-c2ccccc2Nc2ccc(C(F)(F)F)cc2)o1 [Compound 40, 2-(5-(5-methylisoxazol-4-yl)-1,3,4-oxadiazol-2-yl)-N-(4-(trifluoromethyl)phenyl) aniline]	100 to 1000
OC(CBr)c1nnc(-c2ccccc2Nc2ccc(C(F)(F)F)cc2)o1 (stereo not drawn) [Compound 121, 2-bromo-1-(5-(2-((4-(trifluoromethyl)phenyl)amino)phenyl)-1,3,4-oxadiazol-2-yl)ethan-1-ol]	< 100
N#CC1(Cc2nnc(-c3ccccc3Nc3ccc(C(F)(F)F)cc3)o2)CC1 [Compound 88, 1-((5-(2-((4-(trifluoromethyl)phenyl)amino)phenyl)-1,3,4-oxadiazol-2-yl)methyl)cyclopropane-1-carbonitrile]	100 to 1000
OC1(c2nnc(-c3ccccc3Nc3ccc(C(F)(F)F)cc3)o2)COC1 [Compound 55, 3-(5-(2-((4-(trifluoromethyl)phenyl)amino)phenyl)-1,3,4-oxadiazol-2-yl)oxetan-3-ol]	< 100
OCCc1nnc(-c2ccccc2Nc2ccc(C(F)(F)F)cc2)o1 [Compound 2, 2-(5-(2-((4-(trifluoromethyl)phenyl)amino)phenyl)-1,3,4-oxadiazol-2-yl)ethan-1-ol]	< 100
CCC(C)(O)c1nnc(-c2ccccc2Nc2ccc(C(F)(F)F)cc2)o1 (stereo not drawn) [Compound 135, 2-(5-(2-((4-(trifluoromethyl)phenyl)amino)phenyl)-1,3,4-oxadiazol-2-yl)butan-2-ol]	< 100
CNc1nnc(-c2ccccc2Nc2ccc(C(F)(F)F)cc2)o1 [Compound 12, N-methyl-5-(2-((4-(trifluoromethyl)phenyl)amino)phenyl)-1,3,4-oxadiazol-2-amine]	100 to 1000
CC(C)(C(=O)O)c1nnc(-c2ccccc2Nc2ccc(C(F)(F)F)cc2)o1 [Compound 103, 2-methyl-2-(5-(2-((4-(trifluoromethyl)phenyl)amino)phenyl)-1,3,4-oxadiazol-2-yl)propanoic Acid]	100 to 1000
CNC(=O)C1(c2nnc(-c3ccccc3Nc3ccc(C(F)(F)F)cc3)o2)CC1 [Compound 186, N-methyl-1-(5-(2-((4-(trifluoromethyl)phenyl)amino)phenyl)-1,3,4-oxadiazol-2-yl)cyclopropane-1-carboxamide]	100 to 1000
CN(C)C(=O)C1(c2nnc(-c3ccccc3Nc3ccc(C(F)(F)F)cc3)o2)CC1 [Compound 185, N,N-dimethyl-1-(5-(2-((4-(trifluoromethyl)phenyl)amino)phenyl)-1,3,4-oxadiazol-2-yl)cyclopropane-1-carboxamide]	100 to 1000

Same assay, conditions: Homo sapiens, HEK-293T; […]; 24-hr incubation; top concentration 3 μM; read-out: Firefly Luciferase IC50

SMILES	IC50 [nM]
OC(CCl)Cc1nnc(-c2ccccc2Nc2ccc(C(F)(F)F)cc2)o1 (stereo not drawn) [Compound 79, 1-chloro-3-(5-(2-((4-(trifluoromethyl)phenyl)amino)phenyl)-1,3,4-oxadiazol-2-yl)propan-2-ol]	< 100
CS(=O)(=O)C1(c2nnc(-c3ccccc3Nc3ccc(C(F)(F)F)cc3)o2)CC1 [Compound 66, 2-[5-(1-methylsulfonylcyclopropyl)-1,3,4-oxadiazol-2-yl]-N-[4-(trifluoromethyl)phenyl]aniline]	< 100
